{"source": "patent US6852327B1", "about": "“Composition attracting insects pertaining to the coleoptera family and use thereof in the control of plagues in palm-trees and related plants” (Instituto Nacional de Investigacion y Tecnologia Agraria y …, priority 1998, dated 2005)", "system": "Rhynchophorus palmarum", "assay": "Field trapping study of Rhynchophorus palmarum control in palm tree groves (baited traps, 1 month, French Guiana)", "type": "in vivo", "settings": "second (last) Total capture column; period not printed separately (study dates March-May 1997); total insects in all traps with the same test substance", "from_the_text": "Study of Rhynchophorus palmarum Control in Palm Tree Groves\nThis experiment was designed to assess the control of Rhynchophorus palmarum control in ornamental, palm trees and in coconut palms according to the characteristics indicated hereunder.\nInsect species against which the experiment was designed: Rhynchophorus palmarum, Coleoptera curculionidae, Rhynchophorinae.\nTesting area: Cayenne—Remire Montjoly, French Guiana.\nPlants: Ornamental palm tree groves and coconut palms.\nSubstances tested: • (a) Vegetal bait (sugar cane in 25 cm lengths cut lengthwise through the middle and fermented during 24 hours at 28° C., and Rhynchophorol (synthetic feromone) • (b) INIA 1 composition and Rhynchophorol. • (c) INIA 2 composition and Rhynchophorol. • (c) INIA 3 composition and Rhynchophorol. • (e) Reference specimen (only Rhynchophorol).\nA randomly selected “double blind” test was repeated 4 times in traps installed over trash cans modified to include spreaders comprising a supporting agent capable of absorbing/adsorbing and releasing the compositions to be tested and designed to emit said compositions.\nThe vegetal bait, namely cut-up cane, was arranged in a bundle on the bottom of the trap can. Feromone (Rhynchophorol) was released from small hermetic plastic 200 μm envelopes loaded with 0.2 cm^3 of synthetic feromone spreading a minimum of 2 mg/day through pores in the trap. […]"}
{"smiles": "C/C=C/C(O)CC(C)C", "note": "(stereo not shown) [(e), Rhynchophorol]", "values": [{"measurement": "Total capture", "result": 3}]}
